This is an account of results in patent US20160095823A1, “METHODS OF USING PROPOFOL DERIVATIVES FOR ANALGESIA” (priority 2005, published 2016).

Where “and” joins values, the source holds several entries; their conditions need not be identical. Identical values can stand only once.

Assay [1] deals with T1, α-subunits of glycine receptors from the rat coexpressed with human β subunits (Rattus norvegicus, UniProt P07727).
T1 construct: expressed in transfected cells; host or cells: HEK293
Briefly: Example 2: co-activation of the current response to 10 μM glycine, whole-cell mode, HEK293 cells. Format: cell-based. As to the method: (§1) Small cells were studied in the whole-cell mode using an ultra-fast application device.
The results presented in FIG. 10 were corroborated by repeating the tests carried out to provide the data shown in FIG. 10 to provide the data shown in FIG. 11. […] Note from FIGS. 10 and 11 that the co-activating effect is observed in the concentration range between […]. The co-activating effect is overridden by inhibitory effects at higher concentrations (≧1000 μM). […] Small cells were studied in the whole-cell mode using an ultra-fast application device.

For assay [2], the target named is T1, α-subunits of glycine receptors from the rat coexpressed with human β subunits. Briefly: Example 2: direct activation in the absence of glycine, whole-cell mode, HEK293 cells. The format is cell-based.
From the text: as §1
The solid line is a Hill fit to the data with the indicated parameters. Note that the direct activating effect is observed at 1000-fold higher concentrations than the co-activating effect.

For assay [3], the target named is T2, recombinant glycine alpha1 receptors (Homo sapiens, UniProt P23415).
T2 construct: expressed in transfected cells; host or cells: Xenopus oocytes
T2 sequence (P23415 29-457): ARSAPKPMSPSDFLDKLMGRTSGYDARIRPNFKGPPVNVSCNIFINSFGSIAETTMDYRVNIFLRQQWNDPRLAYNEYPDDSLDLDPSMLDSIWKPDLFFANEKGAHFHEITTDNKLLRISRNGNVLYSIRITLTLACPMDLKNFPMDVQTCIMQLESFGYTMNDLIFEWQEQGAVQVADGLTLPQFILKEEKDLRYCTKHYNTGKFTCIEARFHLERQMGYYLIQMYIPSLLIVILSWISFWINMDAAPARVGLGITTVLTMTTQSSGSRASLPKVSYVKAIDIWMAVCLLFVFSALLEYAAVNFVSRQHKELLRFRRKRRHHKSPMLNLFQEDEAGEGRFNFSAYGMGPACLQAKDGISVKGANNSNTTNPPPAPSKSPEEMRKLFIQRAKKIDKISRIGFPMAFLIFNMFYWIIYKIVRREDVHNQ
Briefly: Glycine (EC10)-evoked current in Xenopus oocytes. Format: cell-based. The following applies: 100 nM, preliminary experiments.

Assay [4] deals with native glycine receptors. Briefly: Rat in vitro spinal cord preparation (sIPSCs, tonic conductance). The conditions noted are these: 100 nM-1 μM, preliminary experiments.
Assay [5] concerns Xenopus laevis embryos. Description: Fictive swimming in immobilized stage 37/8 Xenopus embryos (ventral root recording). The format is in vivo. The source says:
The rhythmic swimming behaviour of Xenopus laevis frog embryos (FIG. 22A) is recognised as a powerful model system for exploring spinal neural networks controlling locomotion. The intensity, frequency and duration of swimming episodes are regulated by two inhibitory pathways: a descending brainstem GABA pathway that turns off swimming and a spinal glycinergic pathway that controls the cycle periods attained during swimming.
In the present study Xenopus embryos were used to test the action of 4-chloropropofol (a compound according to the first aspect of the invention) upon fictive swimming in immobilized embryos.
Stage 37/8 embryos (FIG. 22Ai) were immobilized in α-bungarotoxin, secured on a Sylgard block mounted in a recording chamber and recirculated with frog ringer. The flank skin on the left and right sides of the trunk was removed to expose the inter-myotomal clefts wherein lie the ventral roots and then three glass suction electrodes were positioned at rostral and caudal levels on the left side and rostrally on the right side (FIG. 22Aiii) to record “fictive” swimming (FIG. 22B). Swimming activity was evoked by a brief 1 msec current pulse applied to the tail skin via a fourth glass suction electrode. Drugs were applied directly to the bath.

Assay [6] concerns Xenopus laevis embryos. The following applies: cited from earlier work.
For assay [7], the system named is glycine receptors. The conditions noted are these: reported; cited from earlier work.
Where [8] appears, read: 10 μM in the presence of 1 μM strychnine.
The mark [9] stands for this setting: 10 μM in the presence of 1 μM strychnine, pooled n=3.
Setting [10] is: 10 μM in the presence of 40 μM bicuculline methiodide.
Setting [11] is: wash after 10 μM in 1 μM strychnine.
The mark [12] stands for this setting: wash after 10 μM in 40 μM bicuculline methiodide.

T1 sequence (P07727 29-457): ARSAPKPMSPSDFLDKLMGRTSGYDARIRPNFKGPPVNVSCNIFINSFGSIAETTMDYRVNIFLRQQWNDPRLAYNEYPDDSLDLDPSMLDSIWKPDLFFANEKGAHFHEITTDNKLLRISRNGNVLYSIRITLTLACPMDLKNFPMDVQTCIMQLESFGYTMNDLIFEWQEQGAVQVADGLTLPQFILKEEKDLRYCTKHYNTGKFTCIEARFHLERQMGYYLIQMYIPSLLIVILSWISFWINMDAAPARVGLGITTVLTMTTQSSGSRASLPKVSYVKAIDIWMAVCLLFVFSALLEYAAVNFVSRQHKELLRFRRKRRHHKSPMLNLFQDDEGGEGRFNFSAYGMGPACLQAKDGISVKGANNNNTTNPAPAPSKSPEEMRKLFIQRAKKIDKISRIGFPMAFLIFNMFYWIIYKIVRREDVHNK
T1 sequence (P48167 23-497 partner): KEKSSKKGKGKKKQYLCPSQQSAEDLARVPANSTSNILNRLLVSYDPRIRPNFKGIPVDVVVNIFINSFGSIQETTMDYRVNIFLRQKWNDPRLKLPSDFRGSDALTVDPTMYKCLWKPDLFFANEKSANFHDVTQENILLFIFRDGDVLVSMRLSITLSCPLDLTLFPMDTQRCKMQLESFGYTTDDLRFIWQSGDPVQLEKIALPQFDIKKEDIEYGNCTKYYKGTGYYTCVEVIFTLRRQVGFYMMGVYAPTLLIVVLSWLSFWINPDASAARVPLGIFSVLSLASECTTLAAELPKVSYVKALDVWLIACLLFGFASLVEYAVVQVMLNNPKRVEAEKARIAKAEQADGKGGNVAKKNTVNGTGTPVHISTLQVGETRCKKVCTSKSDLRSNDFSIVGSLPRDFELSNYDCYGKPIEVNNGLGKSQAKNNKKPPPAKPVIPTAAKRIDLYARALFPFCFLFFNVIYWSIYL

As to `CC(C)c1cc(Cl)cc(C(C)C)c1O` [4-chloropropofol, 4-chloro-2,6 di-isopropylphenol], the “EC50 values in the presence of glycine (co-activation)” value in assay [1] (Example 2) is “single-digit nanomolar range”. Besides, in assay [1] (co-applied with 10 μM glycine), the “concentrations above which peak current amplitude declines (probable open channel block)” value is “above 10 μM” and the “concentrations at which the co-activating effect is overridden by inhibitory effects” value is not below 1000 µM. Besides, the “enhancement of glycine receptor function / EC50 for co-activation, fold lower concentrations than propofol” value in assay [1] (glycine receptors heterologously expressed in HEK293 cells) turned out to be 1000 fold. Moreover, the “EC50 values in the absence of the natural transmitter glycine” value in assay [2] (Example 2) is “single-digit micromolar range”. Moreover, the “direct activating effect, fold higher concentrations than the co-activating effect” value in assay [2] (absence of glycine versus 10 μM glycine) is listed as 1000 fold. The “effect on glycine (EC10)-evoked current” value in assay [3] was “greatly enhanced”. Also, in assay [4], the “effect on sIPSCs (mediated by synaptic glycine receptors)” value is on record as “prolongation” and the “effect on tonic conductance (mediated by extrasynaptic glycine receptors)” value is recorded as “increase”. In assay [5] (10 μM alone), the “change in episode duration” value was “no significant change”, the “increase in left-right delay” value was determined as 19% and the “increase in rostro-caudal delay” value is 8%. Besides, the “increase in cycle periods” value in assay [5] (10 μM alone, pooled from 5 experiments) is recorded as “approximately 20%”. Moreover, in assay [5] (setting [8]), the “decrease in cycle periods at the end of the episode” value is 3.4 ms, the “decrease in episode duration” value amounted to 17 s and the “increase in cycle periods at the start of the episode” value was found to be 0.5 ms. Also, in assay [5] (setting [9]), the “decrease in cycle periods (not significant)” value was “less than 2%”, the “effect on episode duration” value is given as “little or no effect” and the “effect on left-right delay” value is listed as “little or no effect”. Further, in assay [5] (setting [10]), the “increase in cycle periods at the end of the episode” value is 20.3 ms, the “increase in cycle periods at the start of the episode” value was determined as 8.2 ms and the “increase in episode duration” value was determined as 2 s. For the same compound, the average cycle period in assay [5] (20 minutes after addition of 10 μM 4-chloropropofol in bicuculline) is 61.3 ms. Besides, in assay [5] (after 10 μM alone), the “reversal of effect on cycle period by saline wash” value is 25-30%, the “reversal of effect on left-right delay by saline wash” value is listed as 22% and the “reversal of effect on rostro-caudal delay by saline wash” value came to 12%. The average cycle period in assay [5] (after bicuculline methiodide wash) amounted to 54.5 ms. Further, in assay [5] (at 1004 (so in the source)), the “effect at the GABAA receptor” value was “negligible effect”. In addition, the “influence on glycine receptors” value in assay [5] (at the same concentration) is “powerful influence”. In assay [5] (in the presence of 1 μM strychnine), the “change in rostro-caudal delay” value is listed as “small increase”. In assay [5] (in the presence of 40 μM bicuculline methiodide), the “change in rostro-caudal delay” value is recorded as “clear decrease”. For the same compound, in assay [5] (setting [11]), the “decrease in cycle periods at the end of the episode by strychnine wash” value is recorded as 5.4 ms, the “decrease in cycle periods at the start of the episode by strychnine wash” value is listed as 3 ms and the “increase in episode duration by strychnine wash” value worked out at 2 s. Moreover, in assay [5] (wash after 10 μM in 1 μM strychnine, pooled n=3), the “further decrease in cycle periods by the strychnine wash” value was 3% and 1%. For the same compound, in assay [5] (setting [12]), the “further increase of cycle periods at the end of the episode after bicuculline wash” value is 6.5 ms, the “reduction of cycle period at the start of the episode by bicuculline wash” value stood at 2 ms and the “reduction of episode duration by bicuculline wash” value turned out to be 2 s.

Turning to `CC(C)c1cccc(C(C)C)c1O` [propofol, 2,6-di-isopropylphenol], the “concentration affecting swimming via potentiation of the glycine receptor” value in assay [6] (higher concentrations) is 40 µM. For the same compound, the “concentration inhibiting swimming via actions at the GABAA receptor” value in assay [6] (low concentration) was 10 µM. The “activation of glycine receptors, fold higher concentrations than EC50 at GABAA receptors” value in assay [7] is recorded as 10 fold.
